Laboratory results: US20260028390A1, “ALPHA1-ANTITRYPSIN FOR USE IN THE TREATMENT OF DISEASES OR DISORDERS OF THE NERVOUS SYSTEM SUCH AS CHRONIC INFLAMMATORY DEMYELINATING POLYNEUROPATHY” (Ageronix SA, priority 2022, published 2026)
“And” between values parts separate entries of the source, which are not always exact repeats. Identical values can stand only once.

Key:
CIDP mice [1] = assay: Grip strength test, CIDP mouse model; type: in vivo; settings: for Grip strength (Mean ± SD): CIDP mice; for Grip strength, group Mean: group mean of 4 animals; for Grip strength, Mean/animal: per animal; for Grip strength, Mean/animal / Grip strength, set 1 / Grip strength, set 2 / Grip strength, set 3: listed as hAAT; for Grip strength, set 1 / Grip strength, set 2 / Grip strength, set 3: raw data per animal
Procedure: (§1) C57BL/6 mice were received at 8 weeks of age and housed under controlled conditions for the duration of the study. Three groups of 4 animals each were assigned to the following subcutaneous treatments twice daily at 7:00 AM and 7:00 PM for 2 weeks, from 20 to 35 days after the start of disease induction: • Wild type (WT) mice receiving the vehicle, 0.9% NaCl (positive control) • CIDP mice receiving the vehicle, 0.9% NaCl (negative control) • CIDP mice receiving human AAT (AAT), 50 mg/kg per injection
(§2) Disease induction consisted in subcutaneous injection of mouse sciatic nerve homogenate in phosphate buffer saline (PBS)+Freund's adjuvant mixture at 10 mL/kg. For each treatment, 3 different body sites injections were performed. Control mice also received three subcutaneous injections of PBS+Freund's adjuvant at the same 3 different body sites.
(§3) On the first (Day 20) and last (Day 35) day of treatment, the neuromuscular and performance of animals was tested with a rotarod test, grip test and a sensory test using the Von Frey filament test, as well as sciatic nerve electrophysiology test. After the last treatment at Day 35, these tests were repeated, animals were sacrificed and the left sciatic nerve was sampled for histological evaluation of the number and size of […].

plasma NfL [2] = assay: Plasma NfL quantification, CIDP mouse model; type: in vivo; settings: for Plasma NfL, Mean Diff., CIDP + vehicle vs. CIDP + hAAT / Plasma NfL, Mean Diff., Sham negative control vs. CIDP + hAAT: Bonferroni's multiple comparisons test; for Plasma NfL concentration (Mean ± SD): CIDP mice; for NfL conc: per animal, listed as hAAT
Procedure: as §1
On the day preceding disease induction (Day 1), on the first (Day 20) and on the last (Day 35) treatment day, animals were subjected to blood samplings for the determination of neurofilament light chain (NfL), tumour necrosing factor alpha (TNFα) and TMPRSS5 levels, as described in FIG. 20. In addition, plasma levels of AAT were evaluated on the last treatment day.

CIDP mice [3] = assay: Rotarod test, CIDP mouse model; type: in vivo; settings: for Rotarod latency (Mean ± SEM): CIDP mice; for Rotarod latency, group Mean: group mean of 4 animals; for Rotarod latency, Mean/animal: per animal; for Rotarod latency, Mean/animal / Rotarod latency, set 1 / Rotarod latency, set 2 / Rotarod latency, set 3: listed as hAAT; for Rotarod latency, set 1 / Rotarod latency, set 2 / Rotarod latency, set 3: raw data per animal
Procedure: as §1, §2, §3

plasma NfL [4] = assay: Plasma NfL, CMT mice treated with AAT 180 mg/kg/day sc; type: in vivo, mouse
Description: Animals were received at 6 weeks of age and housed under controlled conditions for the duration of the study. The study comprised two groups of 8 transgenic mice (CMT mice) each and one group of 8 age matched wild type (WT) C57B16 mice, serving as positive control. Animals were assigned to the following subcutaneous treatments twice daily at 7:00 AM and 7:00 PM for 2 weeks, starting from 8 weeks and up to 10 weeks of age: • Wild-type (WT, no disease) mice receiving vehicle, 0.9% NaCl (positive control) • CMT1A mice receiving vehicle, 0.9% NaCl (negative control) • CMT1A mice receiving AAT at 90 mg/kg per injection (daily dose 180 mg/kg)
(§4) The efficacy parameters included: • neuromuscular performance (rotarod latency to fall and grip strength test), • sciatic nerve electrophysiology (CMAP amplitude and NCV) • cytokine (IL-6 and TNFα), as well as NfL analysis • sciatic nerve histology (number of axons and axonal diameter),
As supportive information for the mode of action of AAT in CMT, plasma concentration of interleukin 6 (IL-6) and TNFα were measured at Day 1 (8 weeks), Day 15 (10 weeks) and Day 30 (12 weeks). At the same timepoints, plasma levels of the biomarker of nerve damage, NfL were determined.

plasma TNFα = assay: Plasma TNFα concentration, CMT1A mouse study (50 mg/kg twice daily); type: in vivo; settings: for Plasma TNFα concentration (Mean ± SEM): CMT1A mice
Procedure: Animals were split in 3 groups (wild-type control (subcutaneous 0.9% NaCl), CMT1A-vehicle (subcutaneous 0.9% NaCl), CMT1A-human alpha-1 antitrypsin (subcutaneous, twice daily, 50 mg/kg per injection)) of 3 mice each (3 weeks old males of 18±2.5 g at the beginning of study) and all went through the following protocol after 7 days of acclimation on site.
Starting from the age of 4 weeks, animals were subjected to blood samplings for the determination of interleukin-6 (IL-6) and tumor necrosing factor alpha (TNFα) levels, as described in FIG. 16.

[5] = tested on: CMT1A mice B6.Cg-Tg(PMP22)C3Fbas/J; assay: Grip strength, CMT mice treated with AAT 180 mg/kg/day sc; type: in vivo, mouse; settings: for Grip strength, group Mean: 8 animals
Procedure: CMT MOUSE MODEL: Non-humanized CMT1A mice B6.Cg-Tg(PMP22)C3Fbas/J (three copies of the PMP22 gene), three groups of 8 animals each.
DOSAGE: 180 mg/kg/day non-clinical grade AAT (Sigma)
ADMINISTRATION: Subcutaneous (SC) (bi-daily injection of 90 mg/kg)
Animals were received at 6 weeks of age and housed under controlled conditions for the duration of the study. The study comprised two groups of 8 transgenic mice (CMT mice) each and one group of 8 age matched wild type (WT) C57B16 mice, serving as positive control. […]
as §4
After the last treatment on Day 15, these tests were repeated. Animals were then left untreated for 2 additional weeks to evaluate the duration of the treatment effect. Following the 2-week treatment-free period until 12 weeks of age (Day 30), the behavioural and electrophysiological tests were repeated.

[6] = CIDP + AAT 50 mg/kg sc twice daily, Day 35
[7] = Day 35, AAT 50 mg/kg sc twice daily
[8] = 8 weeks old (baseline, Day 1), CMT1A + AAT
[9] = 10 weeks old (Day 15, after 2 weeks AAT 90 mg/kg sc twice daily)
[10] = 12 weeks old (Day 30, after 2-week treatment-free period)
[11] = baseline (6 weeks old), CMT + hAAT, individual animal

## alpha1-antitrypsin (AAT) protein
CIDP mice [1]; [6]
  grip strength compared to the vehicle treated group: increase
CIDP mice [1]; Day 20 (baseline)
  Grip strength (Mean ± SD): 2.89 ± 0.32 newtons
CIDP mice [1]; [7]
  Grip strength (Mean ± SD): 3.59 ± 0.35 newtons
CIDP mice [1]; Baseline (Day 20)
  Grip strength, group Mean: 2.89 Newton
  Grip strength, Mean/animal: 2.46 Newton and 3.19 Newton and 2.83 Newton and 3.08 Newton
  Grip strength, set 1: 2.92 Newton and 3.06 Newton and 2.89 Newton and 3.50 Newton
  Grip strength, set 2: 2.43 Newton and 2.09 Newton and 2.45 Newton and 2.62 Newton
  Grip strength, set 3: 2.04 Newton and 4.42 Newton and 3.14 Newton and 3.13 Newton
CIDP mice [1]; Day 35
  Grip strength, group Mean: 3.59 Newton
  Grip strength, Mean/animal: 3.68 Newton and 3.69 Newton and 3.91 Newton and 3.10 Newton
  Grip strength, set 1: 4.92 Newton and 4.55 Newton and 5.15 Newton and 3.47 Newton
  Grip strength, set 2: 3.53 Newton and 2.00 Newton and 3.04 Newton and 2.61 Newton
  Grip strength, set 3: 2.58 Newton and 4.52 Newton and 3.53 Newton and 3.23 Newton
Plasma NfL [2]; Day 1
  Plasma NfL, Mean Diff., CIDP + vehicle vs. CIDP + hAAT: 0.04828
  Plasma NfL, Mean Diff., Sham negative control vs. CIDP + hAAT: 0.01878
  Plasma NfL concentration (Mean ± SD): 0.29 ± 0.11 ng/mL
  NfL conc, group MEAN: 0.29 ng/mL
Plasma NfL [2]; Day 20
  Plasma NfL, Mean Diff., CIDP + vehicle vs. CIDP + hAAT: 0.2088
  Plasma NfL, Mean Diff., Sham negative control vs. CIDP + hAAT: -2.85 ng/mL
  Plasma NfL concentration (Mean ± SD): 3.12 ± 0.86 ng/mL
  NfL conc, group MEAN: 3.12 ng/mL
Plasma NfL [2]; Day 35
  Plasma NfL, Mean Diff., CIDP + vehicle vs. CIDP + hAAT: 1.01 ng/mL
  Plasma NfL, Mean Diff., Sham negative control vs. CIDP + hAAT: -1.88 ng/mL
  Plasma NfL concentration (Mean ± SD): 2.30 ± 0.27 ng/mL
  NfL conc, group MEAN: 2.30 ng/mL
  NfL conc: 2.4447 ng/mL and 1.9017 ng/mL and 2.3497 ng/mL and 2.5056 ng/mL
Plasma NfL [2]; CIDP + AAT, day 35
  plasma NfL concentration compared to the CIDP+vehicle treated group: significant decrease
Plasma NfL [2]; Day 1 (before model induction)
  NfL conc: 0.3654 ng/mL and 0.2865 ng/mL and 0.3798 ng/mL and 0.1412 ng/mL
Plasma NfL [2]; Day 20 (before compound treatment)
  NfL conc: 3.7596 ng/mL and 2.7654 ng/mL and 3.8846 ng/mL and 2.0831 ng/mL
CIDP mice [3]; [6]
  rotarod latency compared to the vehicle treated group: increase
CIDP mice [3]; Day 20 (baseline, first treatment day)
  Rotarod latency (Mean ± SEM): 25.96 ± 6.16 s
CIDP mice [3]; [7]
  Rotarod latency (Mean ± SEM): 34.96 ± 9.47 s
CIDP mice [3]; Baseline (Day 20)
  Rotarod latency, group Mean: 25.96 s
  Rotarod latency, Mean/animal: 17.68 s and 29.19 s and 31.82 s and 25.13 s
  Rotarod latency, set 1: 19.1 s and 28.0 s and 28.7 s and 24.1 s
  Rotarod latency, set 2: 17.7 s and 26.7 s and 33.0 s and 24.0 s
  Rotarod latency, set 3: 16.2 s and 32.9 s and 33.8 s and 27.3 s
CIDP mice [3]; Day 35
  Rotarod latency, group Mean: 34.96 s
  Rotarod latency, Mean/animal: 38.90 s and 36.28 s and 43.23 s and 21.41 s
  Rotarod latency, set 1: 32.02 s and 44.79 s and 52.44 s and 37.74 s
  Rotarod latency, set 2: 36.34 s and 31.48 s and 34.61 s and 19.21 s
  Rotarod latency, set 3: 48.35 s and 32.56 s and 42.63 s and 7.29 s
Plasma NfL [4]; [8]
  Plasma NfL (Mean ± SD): 3.83 ± 0.61 ng/mL
Plasma NfL [4]; [9]
  Plasma NfL (Mean ± SD): 1.96 ± 0.46 ng/mL
Plasma NfL [4]; 12 weeks of age, after 2-week treatment-free period
  positive effect on NfL plasma levels: remained significant
Plasma NfL [4]; [10]
  Plasma NfL (Mean ± SD): 4.25 ± 0.36 ng/mL
Plasma NfL [4]; CMT mice, AAT 90 mg/kg sc twice a day
  level of NfL: reduced
Plasma TNFα; CMT1A + AAT, day 14 and day 29
  effect on plasma TNFα levels: no effect
Plasma TNFα; Day 1 (baseline)
  Plasma TNFα concentration (Mean ± SEM): 2.94 ± 0.17 pg/mL
Plasma TNFα; Day 8
  Plasma TNFα concentration (Mean ± SEM): 3.70 ± 0.41 pg/mL
Plasma TNFα; Day 14
  Plasma TNFα concentration (Mean ± SEM): 5.15 ± 0.393 pg/mL
Plasma TNFα; Day 29
  Plasma TNFα concentration (Mean ± SEM): 10.67 ± 0.833 pg/mL
[5]; [8]
  Grip strength (Mean ± SD): 3.35 ± 0.27 newtons
[5]; 8 weeks old, CMT + hAAT 180 mg/kg/day SC
  Grip strength, group Mean: 4.81 NEWTONS
[5]; [9]
  Grip strength (Mean ± SD): 5.47 ± 1.11 newtons
[5]; 12 weeks of age, after 2-week treatment-free period, P<0.05
  grip strength vs untreated CMT animals: significantly higher
[5]; [10]
  Grip strength (Mean ± SD): 3.87 ± 0.36 newtons
[5]; CMT mice, AAT 90 mg/kg sc twice a day, 8 to 10 weeks of age, end of treatment
  grip strength vs CMT mice not treated with AAT: significant increase
[5]; baseline (6 weeks old), CMT + hAAT
  Grip strength, group Mean: 5.54 NEWTONS
[5]; [11]
  Grip strength, Mean/animal: 4.96 NEWTONS and 4.77 NEWTONS and 6.79 NEWTONS and 6.72 NEWTONS and 6.41 NEWTONS and 4.74 NEWTONS and 4.27 NEWTONS and 5.68 NEWTONS
  Grip strength, set 1: 6.56 NEWTONS and 5.62 NEWTONS and 7.24 NEWTONS and 5.90 NEWTONS and 4.97 NEWTONS and 4.35 NEWTONS and 6.08 NEWTONS and 6.51 NEWTONS
  Grip strength, set 2: 3.79 NEWTONS and 4.00 NEWTONS and 7.19 NEWTONS and 8.88 NEWTONS and 7.60 NEWTONS and 6.25 NEWTONS and 2.61 NEWTONS and 3.97 NEWTONS
  Grip strength, set 3: 4.52 NEWTONS and 4.69 NEWTONS and 5.93 NEWTONS and 5.37 NEWTONS and 6.66 NEWTONS and 3.63 NEWTONS and 4.13 NEWTONS and 6.57 NEWTONS
